{"source": "patent US20200254020A1", "about": "“Methods and Compositions for Modulating the WNT-Signaling Pathway as Treatments for Inflammatory Diseases” (UNIVERSITY OF SOUTH CAROLINA, priority 2019, published 2020)", "assay_type_in_all_cases": "cell-based, human", "key": {"WNT10B": {"test_system": "WNT10B", "experiment": "Micro-RNA mimic assay: transfection of THP1 cells, WNT10B mRNA (qRT-PCR) and protein (western blot)", "conditions": "5 pmol per well mimic", "experimental": "THP1 cells obtained from ATCC were cultured in complete RPMI medium containing 10% FBS, penicillin, and streptomycin, HEPES buffer and 2-mercaptoethanol. The incubation condition was at 37° C. and 5% CO2.\nTo investigate whether hsa-miR-7113-5p regulated expression of WNT10B, miRNA mimic transfection studies were performed in THP1 cells. Mimics and inhibitors of the miRNA were obtained from Qiagen Inc. and transfected into the cells by employing Lipofectamine RNAiMAX (Invitrogen, ThermoFisher Scientific, USA). One day prior to transfection, 2×10^5 THP1 cells were plated in a 24-well plate in 5001l complete RPMI medium. Mimic, inhibitor, and scrambled oligos were then added at an amount of 5 pmol per well. Cells were cultured for the indicated time after transfection and harvested for RNA and protein isolation. RNA samples were used for qRT-PCR based quantification of mRNAs and miRNAs. Whole-cell lysates were used for western blot analysis of miRNA target protein.\nFor the Western blot, anti-human-WNT10B was purchased from SIGMA-ALDRICH (cat # PRS4619). […] The total protein was not pre-quantified for loading onto the SDS-PAGE as the protein amount was to be normalized using an internal control. […] Protein bands were detected in a LI-COR blot detection system (Li-Cor Inc, Nebraska, USA)."}, "WNT signaling pathway": {"test_system": "WNT signaling pathway", "experiment": "Blocking WNT signaling with IWR-1 in PMA-activated PBMCs, IFNγ expression", "conditions": "10 μM IWR-1, 200 nM PMA", "experimental": "To investigate whether WNT10B was directly responsible for the upregulation of IFNγ expression, the WNT signaling pathway was blocked using an inhibitor of WNT response-1 (IWR-1, Sigma-Aldrich, St. Louis, Mo., cat # I0161). IWR-1 inhibits WNT signaling by stabilizing AXIN1 and prevents its degradation. AXIN1 is an inhibitor of WNT signaling pathway30. PBMCs (2×106) from healthy controls were cultured overnight (˜18 hours) with 10 LM of IWR-1 in separate wells of a 96-well culture plate in 200 μl complete RPMI medium. The following day, PMA and IWR-1 (in a 10 μl volume) were added to the culture to reach a final concentration of 200 nM PMA and 10 μM IWR-1, respectively. After 6 hours, WNT10B was added to the designated wells. Cells were harvested after 24 and 48 hours of adding WNT10B for total RNA extraction. Culture supernatant was collected for ELISA. ELISA for human IFNγ was performed on culture supernatants. The kit for ELISA was purchased from BioLegend Inc. (CA, USA) and assay was performed following the manufacturer's instructions. Reading for OD was performed in a Victor2TM, 1420 Multilabel Counter (Perkin Elmer, USA) plate reader."}, "PBMCs": {"test_system": "PBMCs", "experiment": "WNT10B signaling pathway initiation: rh-WNT10B added to PBMC cultures, proinflammatory gene expression and IFNγ ELISA", "conditions": "for expression of IFNγ at mRNA level / expression of Tbx-21 at mRNA level: vs un-activated PBMCs or PMA activated PBMCs without rh-WNT10B", "experimental": "To analyze whether WNT 10B could influence the expression of proinflammatory genes, WNT signaling was initiated by adding recombinant human (rh)-WNT10B in PBMCs cultures. The PBMCs were isolated from healthy human individuals. Two million cells were cultured in 200 μl medium in a 96-well tissue culture plates as follows: First, the PBMCs were stimulated with Phorbol 12-myristate 13-acetate (PMA) (200 nM) for 6 hours following which, 200 ng/ml rh-WNT10B was added. Then, the PBMCs were harvested after 24 and 48 hours and used for RNA and whole cell lysate (WCL) extraction for further analysis. The culture supernatants were also collected for ELISA to detect IFNγ. The following combinations were used as controls: 1) PBMCs+PMA without WNT10B and 2) PBMCs+WNT10B without PMA.\nBefore activation of cells and to see whether pre-exposure of cells to WNT10B can influence inflammatory gene expression, WNT10B (200 ng/ml) was first added in all the culture with PBMCs. After 24 hours, PMA (200 nM) was added to activate the cells. The following condition was used for the control: PBMCs+WNT10B without PMA. The cells were then harvested 24 hours after addition of PMA.\nTo test if chronic presence of WNT 10B alone (without stimulation with PMA) can lead to increased expression of inflammatory genes in the PBMCs, PBMCs (2×10^6 cells/well, in 200 μl, in a 96-well plate) were cultured with rh-WNT10B (200 ng/ml) for 96 hours. Additional rh-WNT10B was added after every 24 hours of culture. Cells were harvested every 24 hours for RNA and whole-cell lysate isolation. Supernatants were also collected for performing ELISA.\nELISA for human IFNγ was performed on culture supernatants. The kit for ELISA was purchased from BioLegend Inc. (CA, USA) and assay was performed following the manufacturer's instructions. Reading for OD was performed in a Victor2TM, 1420 Multilabel Counter (Perkin Elmer, USA) plate reader."}, "[1]": {"conditions": "PMA (200 nM) activated PBMCs, 200 ng/ml rh-WNT10B, 24 hours"}, "[2]": {"conditions": "PMA (200 nM) activated PBMCs, 200 ng/ml rh-WNT10B, 48 hours"}}}
{"compound": "mimics of hsa-miR-7113-5p: Mimic of miRNA hsa-miR-7113-5p (UCCAGGGAGACAGUGUGUGAG, SEQ ID NO: 2) obtained from Qiagen Inc. (listed as RNA, chemistry not given here; listed as Homo sapiens)", "values": [{"measurement": "level of WNT10B mRNA", "setting": "WNT10B; qRT-PCR, compared to scrambled miRNA and miRNA-7113-5p-inhibitor treated groups", "result": "Significant reduction"}, {"measurement": "level of WNT10B protein", "setting": "WNT10B; western blot of whole-cell lysate after 72 hours, compared to scrambled miRNA and inhibitor groups", "result": "Significant reduction"}]}
{"compound": "O=C(Nc1cccc2cccnc12)c1ccc(N2C(=O)C3C(C2=O)[C@H]2C=C[C@@H]3C2)cc1", "note": "(stereo partly shown) [IWR-1, 4-(1,3,3a,4,7,7a-Hexahydro-1,3-dioxo-4,7-methano-2H-isoindol-2-yl)-N-8-quinolinyl-benzamide]", "values": [{"measurement": "expression of IFNγ and other proinflammatory genes upon addition of WNT10B", "setting": "WNT signaling pathway; WNT10B added after 6 hours", "result": "did not lead to increased expression"}, {"measurement": "expression of IFNγ", "setting": "WNT signaling pathway; compared to cells activated with PMA only", "result": "significantly downregulated"}]}
{"compound": "rh-WNT10B: recombinant human (rh)-WNT10B added to PBMC cultures to initiate WNT signaling", "values": [{"measurement": "protein level of IFNγ", "setting": "PBMCs; PMA (200 nM) activated PBMCs, 200 ng/ml rh-WNT10B, 24 hours, ELISA on culture supernatant", "result": "significant increase"}, {"measurement": "expression of IFNγ at mRNA level", "setting": "PBMCs; [1]", "result": "significant increase"}, {"measurement": "expression of Tbx-21 at mRNA level", "setting": "PBMCs; [1]", "result": "significant increase"}, {"measurement": "expression of IFNγ at mRNA level", "setting": "PBMCs; [2]", "result": "significant increase"}, {"measurement": "expression of Tbx-21 at mRNA level", "setting": "PBMCs; [2]", "result": "significant increase"}, {"measurement": "induction of inflammatory genes, including STAT3, STAT4, or IFNγ", "setting": "PBMCs; rh-WNT10B (200 and 500 ng/ml) alone added to naïve PBMCs, without PMA", "result": "did not induce any inflammatory genes"}]}
